Assays:
[1] = target: T1, GlpT (Escherichia coli, UniProt P08194); assay: far-UV circular dichroism at […] nm, urea denaturation with ligand; format: binding; conditions: 50 uM ligand; 0.01 mg/ml protein; detergent-solubilised; 50 mM Tris-HCl pH 7.4; chemical denaturation onset, not an affinity
T1 construct: 10-His tag (modified pET28a), expressed in E. coli BL21-AI, purified, detergent-solubilised (LacY-WT procedure, Tris-HCl pH 7.4)
T1 sequence (P08194 1-452): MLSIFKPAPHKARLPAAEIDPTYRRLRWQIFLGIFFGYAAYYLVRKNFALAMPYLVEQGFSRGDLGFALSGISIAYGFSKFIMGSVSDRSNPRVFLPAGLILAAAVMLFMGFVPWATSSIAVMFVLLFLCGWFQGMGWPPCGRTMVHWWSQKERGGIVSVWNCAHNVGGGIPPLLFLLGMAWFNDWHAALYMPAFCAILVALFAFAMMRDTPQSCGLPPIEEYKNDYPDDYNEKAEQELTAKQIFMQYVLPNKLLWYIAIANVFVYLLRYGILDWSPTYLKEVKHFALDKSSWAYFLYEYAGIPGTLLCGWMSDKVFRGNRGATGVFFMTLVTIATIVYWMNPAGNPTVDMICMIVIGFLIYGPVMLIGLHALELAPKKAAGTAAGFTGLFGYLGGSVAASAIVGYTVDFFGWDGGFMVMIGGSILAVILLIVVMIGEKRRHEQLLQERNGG

[2] = target: T2, XylE (Escherichia coli, UniProt P0AGF4); assay: far-UV circular dichroism at […] nm, GuHCl denaturation with ligand; format: binding; conditions: 1 mM ligand; 0.35 mg/ml protein; detergent-solubilised; chemical denaturation onset, not an affinity; D/L form not given
T2 construct: 10-His tag (modified pET28a), expressed in E. coli BL21-AI, purified, detergent-solubilised (LacY-WT procedure)
T2 sequence (P0AGF4 1-491): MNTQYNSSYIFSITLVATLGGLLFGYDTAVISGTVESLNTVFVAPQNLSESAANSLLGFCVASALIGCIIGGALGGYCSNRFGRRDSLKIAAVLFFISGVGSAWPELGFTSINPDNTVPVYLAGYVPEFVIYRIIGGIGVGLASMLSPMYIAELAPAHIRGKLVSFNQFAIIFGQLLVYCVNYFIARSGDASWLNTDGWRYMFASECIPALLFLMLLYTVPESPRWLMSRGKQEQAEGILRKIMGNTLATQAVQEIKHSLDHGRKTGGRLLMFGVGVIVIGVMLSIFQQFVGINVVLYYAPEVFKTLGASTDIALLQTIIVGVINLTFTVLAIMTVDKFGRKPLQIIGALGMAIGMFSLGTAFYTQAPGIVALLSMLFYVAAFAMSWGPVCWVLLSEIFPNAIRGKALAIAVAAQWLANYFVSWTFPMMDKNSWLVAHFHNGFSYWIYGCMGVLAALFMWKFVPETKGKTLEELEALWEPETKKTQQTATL

Row | Compound | Effect of ligand on stability [1] [M urea] | Concentration of GuHCl required for unfolding (M) [2] [M GuHCl]
1 | Cc1ncc(COP(=O)(O)O)c(C=O)c1O [pyridoxal-5-phosphate] | > 6 | –
2 | OC1OC[C@@H](O)[C@H](O)[C@H]1O (some centres unmarked) [xylose] | – | > 5
